Drawing on patent US9714231B2, “Pyrrolidine GPR40 modulators” (BRISTOL-MYERS SQUIBB COMPANY, priority 2012, dated 2017), this text covers EC50 for 31 compounds.

Counter-ions that a name gives are not always drawn.

The assay concerns the target human GPR40 (Homo sapiens, UniProt O14842). Put plainly: FDSS-based intracellular calcium assay (Human GRP40 in vitro assay). As to conditions: cells expressing GPR40, intracellular Ca2+ response, FDSS reader; read-out: hGPR40 EC50. The assay is classed as cell-based. On the set-up: 3xFLAG; expressed in transfected cells. As for the experimental part:
To conduct the fluorescent imaging plate reader (FLIPR)-based calcium flux assay to measure intracellular Ca^2+ response, cells expressing GPR40 are plated on 384 well plates (BD BIOCOAT® #356697) at a density of 20,000 cells/20 μL medium per well in phenol red and serum-free DMEM (GIBCO® #21063-029) and incubated overnight. Using BD kit #s 80500-310 or -301, the cells are incubated with 20 μL per well of Hank's buffered salt solution with 1.7 mM probenecid and Fluo-3 at 37° C. for 30 min. Compounds are dissolved in DMSO and diluted to desired concentrations with assay buffer and added to the cells as 3× solution (20 μL per well). Run fluorescence/luminescence reader FDSS (Hamamatsu) to read intracellular Ca^2+ response.
(In general: Calcium assays in cells follow changes in intracellular calcium, usually with a dye or a luminescent sensor.)

human GPR40, sequence (O14842 whole entry): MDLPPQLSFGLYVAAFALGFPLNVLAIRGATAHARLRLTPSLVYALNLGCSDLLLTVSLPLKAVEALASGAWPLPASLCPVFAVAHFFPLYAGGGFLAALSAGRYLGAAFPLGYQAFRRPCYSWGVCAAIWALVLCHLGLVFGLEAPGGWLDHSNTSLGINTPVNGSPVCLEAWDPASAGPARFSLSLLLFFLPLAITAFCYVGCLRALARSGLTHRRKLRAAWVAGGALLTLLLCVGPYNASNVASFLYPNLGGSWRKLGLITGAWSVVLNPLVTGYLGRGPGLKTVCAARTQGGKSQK

One may read the EC50 as the concentration giving half of the maximal effect. In the case of `COc1cc(N2CCC(Oc3ccc(N4C[C@H](OC)C[C@@H]4CC(=O)O)cc3)CC2)c(F)cc1Cc1ccccc1` [Example 23, 2-((2R,4R)-1-(4-((1-(4-Benzyl-2-fluoro-5-methoxyphenyl)piperidin-4-yl)oxy)phenyl)-4-methoxypyrrolidin-2-yl)acetic acid, TFA], the EC50 came out at 3200 nM.
Take `COc1ccc(F)c(N2CCC(Oc3ccc(N4CCCC4CC(=O)O)cc3)CC2)c1` (single isomer, unassigned) [Example 48, Isomer 1, 2-(1-(4-((1-(2-Fluoro-5-methoxyphenyl)piperidin-4-yl)oxy)phenyl)pyrrolidin-2-yl)acetic acid]: the EC50 came to 4100 nM.
The same measure for `COc1cc(N2CCC(Oc3ccc(N4C[C@H](C(F)(F)F)C[C@@H]4CC(=O)O)cc3)C(C)C2)c(Cl)cn1` (single isomer, unassigned) [Example 27, Isomer 1, HCl]: 440 nM; for `CCc1cc(F)c(N2CCC(Oc3ccc(N4C[C@H](OC)C[C@@H]4CC(=O)O)cc3)CC2)cc1OC` [Example 29, 2-((2R,4R)-1-(4-((1-(4-Ethyl-2-fluoro-5-methoxyphenyl)piperidin-4-yl)oxy)phenyl)-4-methoxypyrrolidin-2-yl)acetic acid, TFA]: 1100 nM; for `CCCCCO[C@@H]1C[C@H](CC(=O)O)N(c2ccc(OC3CCN(c4cc(OCC)ccc4F)CC3)cc2)C1` [Example 103, 2-((2R,4R)-1-(4-((1-(5-Ethoxy-2-fluorophenyl)piperidin-4-yl)oxy)phenyl)-4-(pentyloxy)pyrrolidin-2-yl)acetic acid, TFA]: 120 nM.
Take `COc1cc(N2CCC(Oc3ccc(N4C[C@H](F)[C@@H](C)[C@@H]4CC(=O)O)cc3)C(C)C2)c(Cl)cn1` (stereo partly shown) [Example 145]: the concentration for a half-maximal effect (EC50) was found to be 26 nM.
The same measure for `COc1ccc(F)c(N2CCC(Oc3ccc(N4C[C@H](Cc5ccccc5)C[C@@H]4CC(=O)O)cc3)CC2)c1` [Example 7, 2-((2R,4R)-4-Benzyl-1-(4-((1-(2-fluoro-5-methoxyphenyl)piperidin-4-yl)oxy)phenyl)pyrrolidin-2-yl)acetic acid, HCl]: 320 nM; for `COCC1CN(c2cc(OC)ncc2Cl)CCC1Oc1ccc(N2C[C@H](C(F)(F)F)C[C@@H]2CC(=O)O)cc1` (single isomer, unassigned) [Example 172, Isomer 2, TFA]: 460 nM; for `CCOc1ccc(F)c(N2CCC(Oc3ccc(N4C[C@H](C#N)C[C@@H]4CC(=O)O)cc3)CC2)c1` [Example 130, 2-((2R,4R)-4-Cyano-1-(4-((1-(5-ethoxy-2-fluorophenyl)piperidin-4-yl)oxy)phenyl)pyrrolidin-2-yl)acetic acid, TFA]: 2100 nM.
As for `COc1cc(N2CCC(Oc3ccc(N4C[C@H](OC)C[C@@H]4CC(=O)O)cc3)CC2)c(Cl)cn1` [Example 87, 2-((2R,4R)-1-(4-((1-(5-Chloro-2-methoxypyridin-4-yl)piperidin-4-yl)oxy)phenyl)-4-methoxypyrrolidin-2-yl)acetic acid, TFA], the figure is 350 nM; as for `CCO[C@H]1CN(c2ccc(OC3CCN(c4cc(OC)ncc4Cl)CC3C)cc2)[C@@H](CC(=O)O)[C@@H]1C` (stereo partly drawn) [Example 158, 2-((2S,3S,4R)-1-(4-(((3,4-trans)-1-(5-Chloro-2-methoxypyridin-4-yl)-3-methylpiperidin-4-yl)oxy)phenyl)-4-ethoxy-3-methylpyrrolidin-2-yl)acetic acid, TFA], 160 nM.
The same measure for `COc1ccc(C)c(N2CCC(Oc3ccc(N4C[C@H](OC)C[C@@H]4CC(=O)O)cc3)C(C)C2)c1` (single isomer, unassigned) [Example 64, Isomer 1]: 240 nM; for `COc1ccc(F)c(N2CCC(Oc3ccc(N4C[C@H](OC)C[C@@H]4CC(=O)O)cc3)CC2C)c1` (single isomer, unassigned) [Example 13, Isomer 2, HCl]: 160 nM.
Consider `CCOc1ccc(F)c(N2CCC(Oc3ccc(N4C[C@H](OC)[C@@H](C(C)C)[C@@H]4CC(=O)O)cc3)CC2)c1` [Example 89, 2-((2S,3S,4R)-1-(4-((1-(5-Ethoxy-2-fluorophenyl)piperidin-4-yl)oxy)phenyl)-3-isopropyl-4-methoxypyrrolidin-2-yl)acetic acid, TFA], for which the concentration for a half-maximal effect (EC50) turned out to be 320 nM.
The same measure for `COc1cc(N2CCC(Oc3cnc(N4C[C@H](OC)[C@@H](C)[C@@H]4CC(=O)O)nc3)C(C)C2)c(Cl)cn1` (stereo partly drawn) [Example 170, 2-((2S,3S,4R)-1-(5-(((3,4-trans)-1-(5-Chloro-2-methoxypyridin-4-yl)-3-methylpiperidin-4-yl)oxy)pyrimidin-2-yl)-4-methoxy-3-methylpyrrolidin-2-yl)acetic acid]: 1700 nM; for `CO[C@@H]1C[C@H](CC(=O)O)N(c2ccc(OC3CCN(c4cc(OC(F)(F)F)ccc4F)CC3)cc2)C1` [Example 63, 2-((2R,4R)-1-(4-(1-(2-Fluoro-5-(trifluoromethoxy)phenyl)piperidin-4-yloxy)phenyl)-4-methoxypyrrolidin-2-yl)acetic acid, TFA]: 2600 nM.
Consider `CCOc1ccc(F)c(N2CCC(Oc3ccc(N4C[C@H](C(F)(F)F)C[C@@H]4CC(=O)O)cc3)C(Cc3ccccc3)C2)c1` (single isomer, unassigned) [Example 36, Isomer 2, HCl], for which the EC50 came to 740 nM.
The same measure for `COc1ccc(F)c(N2CC[C@H](COc3ccc(N4C[C@H](C(F)(F)F)C[C@@H]4CC(=O)O)cc3)C2)c1` [Example 10, 2-((2R,4R)-1-(4-(((S)-1-(2-Fluoro-5-methoxyphenyl)pyrrolidin-3-yl)methoxy)phenyl)-4-(trifluoromethyl)pyrrolidin-2-yl)acetic acid, HCl]: 940 nM; for `CCOc1ccc(F)c(N2CCC(Oc3ccc(N4C[C@H](Oc5ccccn5)C[C@@H]4CC(=O)O)cc3)CC2)c1` [Example 75, 2-((2R,4R)-1-(4-(1-(5-Ethoxy-2-fluorophenyl)piperidin-4-yloxy)phenyl)-4-(pyridin-2-yloxy)pyrrolidin-2-yl)acetic acid, TFA]: 420 nM.
The same measure for `COc1cc(N2CCC(Oc3ccc(N4C[C@H](OC)C[C@@H]4CC(=O)O)cc3)C(CC#N)C2)c(Cl)cn1` (stereo partly drawn) [Example 93, 2-((2R,4R)-1-(4-(((3,4-trans)-1-(5-Chloro-2-methoxypyridin-4-yl)-3-(cyanomethyl)piperidin-4-yl)oxy)phenyl)-4-methoxypyrrolidin-2-yl)acetic acid, TFA]: 2300 nM; for `COc1cc(N2CCC(Oc3ccc(N4C[C@H](OC)[C@@H](C)[C@@H]4CC(=O)O)cc3)C(C)C2)c(F)cc1F` (single isomer, unassigned) [Example 169, Isomer 1]: 3500 nM; for `COc1cc(N2CCC(Oc3ccc(N4C[C@H](OC)C[C@@H]4CC(=O)O)cc3)CC2)c2nccn2n1` [Example 86, 2-((2R,4R)-4-Methoxy-1-(4-((1-(6-methoxyimidazo[1,2-b]pyridazin-8-yl)piperidin-4-yl)oxy)phenyl)pyrrolidin-2-yl)acetic acid, TFA]: 4700 nM.
The same measure for `COc1cc(N2CCC(Oc3ccc(N4C[C@H](OC)[C@@H](C)[C@@H]4CC(=O)O)cn3)CC2)c(C2CCCC2(C)C)cn1` (single isomer, unassigned) [Example 151, Isomer 2, HCl]: 140 nM; for `COc1cc(N2CCC(Oc3ccc(N4C[C@H](OC)CC4CC(=O)O)c(F)c3F)C(C)C2)c(Cl)cn1` (single isomer, unassigned) [Example 141, Isomer 3]: 4700 nM; for `COc1ccc(F)c(N2CCC(Oc3ccc(N4C[C@H](C(F)(F)F)C[C@@H]4CC(=O)O)cc3)C2)c1` (single isomer, unassigned) [Example 12, Isomer 1, HCl]: 2800 nM.
`COc1cc(N2CCC(Oc3ccc(N4C[C@H](OC)[C@@H](C)[C@@H]4CC(=O)O)nc3)C(C)C2)c(Cl)cn1` (stereo partly drawn) [Example 166, 2-((2S,3S,4R)-1-(5-(((3,4-trans)-1-(5-Chloro-2-methoxypyridin-4-yl)-3-methylpiperidin-4-yl)oxy)pyridin-2-yl)-4-methoxy-3-methylpyrrolidin-2-yl)acetic acid]: the EC50 is 420 nM.
The same measure for `COc1ccc(C(C)C)c(N2CCC(Oc3ccc(N4C[C@H](OC)C[C@@H]4CC(=O)O)cc3)CC2)c1` [Example 60, 2-((2R,4R)-1-(4-(1-(2-Isopropyl-5-methoxyphenyl)piperidin-4-yloxy)phenyl)-4-methoxypyrrolidin-2-yl)acetic acid, TFA]: 190 nM; for `COc1cc(N2CCC(Oc3ccc(N4CC[C@@H](C)[C@@H]4CC(=O)O)cn3)C(C)C2)c(Cl)cn1` (stereo partly drawn) [Example 105, 2-((2S,3R)-1-(6-(((3,4-trans)-1-(5-Chloro-2-methoxypyridin-4-yl)-3-methylpiperidin-4-yl)oxy)pyridin-3-yl)-3-methylpyrrolidin-2-yl)acetic acid]: 60 nM.
The same measure for `COc1ccc(F)c(N2C[C@@H](C)[C@H](Oc3ccc(N4C[C@H](OC)C[C@@H]4CC(=O)O)cc3)[C@@H](C)C2)c1` [Example 55, 2-((2R,4R)-1-(4-(((3S,4R,5R)-1-(2-Fluoro-5-methoxyphenyl)-3,5-dimethylpiperidin-4-yl)oxy)phenyl)-4-methoxypyrrolidin-2-yl)acetic acid, HCl]: 980 nM; for `COc1ccc(F)c(N2CCC(Oc3ccc(N4C[C@H](OC)C[C@@H]4CC(=O)O)cc3)C(C)C2)c1` (single isomer, unassigned) [Example 17, Isomer 2]: 64 nM; for `COc1ccc(C2CCCC2(C)C)c(N2CCC(Oc3ccc(N4C[C@H](OC)C[C@@H]4CC(=O)O)cc3)CC2)c1` (single isomer, unassigned) [Example 65, Isomer 2]: 120 nM.
